The test has as its target T1, Notum (Homo sapiens, UniProt Q6P988, C330S).
T1 sequence (Q6P988 81-451 C330S): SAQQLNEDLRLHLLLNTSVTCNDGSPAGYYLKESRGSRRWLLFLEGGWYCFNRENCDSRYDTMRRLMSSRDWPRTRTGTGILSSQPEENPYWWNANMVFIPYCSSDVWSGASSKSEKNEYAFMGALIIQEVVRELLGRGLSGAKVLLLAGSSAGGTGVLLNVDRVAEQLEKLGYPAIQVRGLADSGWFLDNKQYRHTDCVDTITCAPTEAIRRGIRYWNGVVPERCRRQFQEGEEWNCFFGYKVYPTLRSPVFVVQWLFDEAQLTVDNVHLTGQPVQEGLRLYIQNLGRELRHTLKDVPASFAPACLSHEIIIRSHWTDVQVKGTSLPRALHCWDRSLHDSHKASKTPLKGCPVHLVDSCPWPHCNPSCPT
Put plainly: X-ray crystal structure ([…] Å); thermal shift (Tm […] to […] °C); OPTS enzyme inhibition IC50. The format is biochemical.

Here are results for one molecule from PMC7027535 (Journal of Pineal Research, 2020).

The term IC50 denotes the midpoint of a concentration-inhibition curve. Consider `CC(=O)NCCc1c[nH]c2ccc(O)cc12` [ASE, N‐acetylserotonin], for which the IC50 was found to be 94 µM.
